Data taken from the CheMixHub viscosity set.

Assay: xn = mol fraction of the nth substance listed

CCCCCCC(=O)O + ClC(Cl)(Cl)Cl
298.15 K, 101 kPa
Details | viscosity [mPa·s]
x1 = 0.06 | 0.99
x1 = 0.12 | 1.08
x1 = 0.17 | 1.175
x1 = 0.23 | 1.271
x1 = 0.44 | 1.767
x1 = 0.54 | 2.046
x1 = 0.64 | 2.362
x1 = 0.83 | 3.015

FC(F)(F)C(F)(F)Cl + FC(F)Cl
Details | viscosity [mPa·s]
298.15 K, 101 kPa, x2 = 0.63 | 0.16

Clc1cccc(Cl)c1 + Nc1cccc(Cl)c1
viscosity [mPa·s], 100 kPa
Details | x2 = 0.1079 | x2 = 0.2255 | x2 = 0.3102 | x2 = 0.4128 | x2 = 0.5135 | x2 = 0.6122 | x2 = 0.7094 | x2 = 0.8047 | x2 = 0.8908
303.15 K | 1.313 | 1.712 | 1.998 | 2.341 | 2.675 | 2.999 | 3.318 | 3.627 | 3.905
308.15 K | 1.225 | 1.581 | 1.836 | 2.142 | 2.439 | 2.729 | 3.012 | 3.286 | 3.532
313.15 K | 1.141 | 1.455 | 1.678 | 1.946 | 2.208 | 2.462 | 2.708 | 2.946 | 3.162
318.15 K | 1.055 | 1.326 | 1.519 | 1.752 | 1.975 | 2.193 | 2.405 | 2.611 | 2.795

CCOc1ccccc1 + Nc1ccccc1
viscosity [mPa·s], 101 kPa
Details | x1 = 0.09206 | x1 = 0.1748 | x1 = 0.2667 | x1 = 0.3716 | x1 = 0.4789 | x1 = 0.5934 | x1 = 0.7132 | x1 = 0.8542
293.35 K | 3.64 | 3.17 | 2.75 | 2.39 | 2.1 | 1.84 | 1.63 | 1.428
302.75 K | 2.7 | 2.38 | 2.115 | 1.87 | 1.67 | 1.495 | 1.335 | 1.169
313.15 K | 2.08 | 1.865 | 1.675 | 1.5 | 1.355 | 1.225 | 1.106 | 0.982

O=C([O-])CC(O)(CC(=O)O)C(=O)O.[K+] + O
viscosity [mPa·s], 101 kPa
Details | 293.15 K | 298.15 K | 303.15 K | 308.15 K
x1 = 0.0032 | 1.074 | 0.954 | 0.853 | 0.766
x1 = 0.0089 | 1.237 | 1.089 | 0.97 | 0.876
x1 = 0.0177 | 1.419 | 1.253 | 1.117 | 1.002
